From patent publication US9296704B2, “Substituted pyrimidines as protein kinase inhibitors” (CELGENE AVILOMICS RESEARCH, INC., priority 2007, dated 2016)

Assays:
[1] = target: T1, EGFR (WT) (Homo sapiens, UniProt P00533); experiment: Omnia continuous-read kinase assay, EGFR (WT); assay type: biochemical; conditions: read-out: EGFR inhibtion
T1 construct: purchased Invitrogen PV3872
Summary of the method: (§1)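 Enzyme pre-incubated 30 min at 27 °C with compound, then ATP/Y12-Sox peptide added; fluorescence (ex360/em485) read continuously 60 min in 20 mM Tris pH 7.5, 5 mM MgCl2, 0.2 mM DTT. WT: 5 nM enzyme, […]; T790M/L858R: 3 nM enzyme, […]. IC50 from initial velocities, variable-slope fit.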

[2] = target: T2, EGFR (T790M/L858R) (Homo sapiens, UniProt P00533, L858R/T790M); experiment: Omnia continuous-read kinase assay, EGFR (T790M/L858R); assay type: biochemical; conditions: read-out: EGFR (T790M/L858R) inhibiton
T2 construct: purchased BPS Bioscience 40350
T2 sequence (P00533 25-1210 T790M/L858R): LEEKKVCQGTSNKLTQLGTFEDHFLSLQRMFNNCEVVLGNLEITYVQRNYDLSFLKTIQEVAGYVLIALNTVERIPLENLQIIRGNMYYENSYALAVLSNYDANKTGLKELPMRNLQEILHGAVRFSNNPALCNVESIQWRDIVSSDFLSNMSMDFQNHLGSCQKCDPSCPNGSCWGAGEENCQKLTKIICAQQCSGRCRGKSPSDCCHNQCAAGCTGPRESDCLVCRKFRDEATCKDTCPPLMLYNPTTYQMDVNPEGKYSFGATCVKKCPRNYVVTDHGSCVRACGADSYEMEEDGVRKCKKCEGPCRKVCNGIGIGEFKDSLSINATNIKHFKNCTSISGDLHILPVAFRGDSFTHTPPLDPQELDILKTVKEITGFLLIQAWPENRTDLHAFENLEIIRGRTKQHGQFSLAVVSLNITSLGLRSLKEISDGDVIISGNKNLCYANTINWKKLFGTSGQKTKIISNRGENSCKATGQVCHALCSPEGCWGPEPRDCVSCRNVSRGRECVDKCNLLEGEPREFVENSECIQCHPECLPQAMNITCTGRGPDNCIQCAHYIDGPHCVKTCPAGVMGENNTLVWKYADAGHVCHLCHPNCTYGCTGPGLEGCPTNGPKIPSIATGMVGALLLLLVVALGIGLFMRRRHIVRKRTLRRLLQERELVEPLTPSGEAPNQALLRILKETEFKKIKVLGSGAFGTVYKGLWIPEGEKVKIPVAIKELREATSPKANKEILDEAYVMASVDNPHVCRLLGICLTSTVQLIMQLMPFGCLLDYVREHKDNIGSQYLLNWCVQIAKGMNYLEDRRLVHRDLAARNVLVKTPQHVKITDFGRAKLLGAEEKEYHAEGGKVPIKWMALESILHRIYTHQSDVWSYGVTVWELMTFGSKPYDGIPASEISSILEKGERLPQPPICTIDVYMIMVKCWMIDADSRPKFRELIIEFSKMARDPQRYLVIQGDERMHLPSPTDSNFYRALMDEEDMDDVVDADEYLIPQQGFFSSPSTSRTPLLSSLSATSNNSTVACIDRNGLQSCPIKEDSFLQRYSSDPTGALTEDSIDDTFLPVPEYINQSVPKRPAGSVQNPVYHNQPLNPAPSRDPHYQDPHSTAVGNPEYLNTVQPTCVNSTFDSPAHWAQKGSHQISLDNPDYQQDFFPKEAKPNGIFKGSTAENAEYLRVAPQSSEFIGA
Summary of the method: as §1

[3] = target: ErbB1 (Homo sapiens, UniProt P00533); experiment: Z'-LYTE biochemical assay, ErbB1 kinase inhibition; conditions: for inhibition at 0.01 µM: @ 10 nM
Procedure: (§2) Compounds of the present invention were assayed as inhibitors of one or more of ErbB1, ErbB2, and/or ErbB4 in a manner substantially similar to the method described by Invitrogen Corp (Invitrogen Corporation, 1600 Faraday Avenue, Carlsbad, Calif., CA; http://www.invitrogen.com/downloads/Z-LYTE_Brochure—1205.pdf) using the Z′-LYTE™ biochemical assay procedure or similar biochemical assay. The Z′-LYTE™ biochemical assay employs a fluorescence-based, coupled-enzyme format and is based on the differential sensitivity of phosphorylated and non-phosphorylated peptides to proteolytic cleavage.

[4] = target: ErbB2 (Homo sapiens, UniProt P04626); experiment: Z'-LYTE biochemical assay, ErbB2 kinase inhibition
Procedure: as §2

[5] = target: ErbB4 (Homo sapiens, UniProt Q15303); experiment: Z'-LYTE biochemical assay, ErbB4 kinase inhibition
Chain of ErbB4 (Q15303 26-1308): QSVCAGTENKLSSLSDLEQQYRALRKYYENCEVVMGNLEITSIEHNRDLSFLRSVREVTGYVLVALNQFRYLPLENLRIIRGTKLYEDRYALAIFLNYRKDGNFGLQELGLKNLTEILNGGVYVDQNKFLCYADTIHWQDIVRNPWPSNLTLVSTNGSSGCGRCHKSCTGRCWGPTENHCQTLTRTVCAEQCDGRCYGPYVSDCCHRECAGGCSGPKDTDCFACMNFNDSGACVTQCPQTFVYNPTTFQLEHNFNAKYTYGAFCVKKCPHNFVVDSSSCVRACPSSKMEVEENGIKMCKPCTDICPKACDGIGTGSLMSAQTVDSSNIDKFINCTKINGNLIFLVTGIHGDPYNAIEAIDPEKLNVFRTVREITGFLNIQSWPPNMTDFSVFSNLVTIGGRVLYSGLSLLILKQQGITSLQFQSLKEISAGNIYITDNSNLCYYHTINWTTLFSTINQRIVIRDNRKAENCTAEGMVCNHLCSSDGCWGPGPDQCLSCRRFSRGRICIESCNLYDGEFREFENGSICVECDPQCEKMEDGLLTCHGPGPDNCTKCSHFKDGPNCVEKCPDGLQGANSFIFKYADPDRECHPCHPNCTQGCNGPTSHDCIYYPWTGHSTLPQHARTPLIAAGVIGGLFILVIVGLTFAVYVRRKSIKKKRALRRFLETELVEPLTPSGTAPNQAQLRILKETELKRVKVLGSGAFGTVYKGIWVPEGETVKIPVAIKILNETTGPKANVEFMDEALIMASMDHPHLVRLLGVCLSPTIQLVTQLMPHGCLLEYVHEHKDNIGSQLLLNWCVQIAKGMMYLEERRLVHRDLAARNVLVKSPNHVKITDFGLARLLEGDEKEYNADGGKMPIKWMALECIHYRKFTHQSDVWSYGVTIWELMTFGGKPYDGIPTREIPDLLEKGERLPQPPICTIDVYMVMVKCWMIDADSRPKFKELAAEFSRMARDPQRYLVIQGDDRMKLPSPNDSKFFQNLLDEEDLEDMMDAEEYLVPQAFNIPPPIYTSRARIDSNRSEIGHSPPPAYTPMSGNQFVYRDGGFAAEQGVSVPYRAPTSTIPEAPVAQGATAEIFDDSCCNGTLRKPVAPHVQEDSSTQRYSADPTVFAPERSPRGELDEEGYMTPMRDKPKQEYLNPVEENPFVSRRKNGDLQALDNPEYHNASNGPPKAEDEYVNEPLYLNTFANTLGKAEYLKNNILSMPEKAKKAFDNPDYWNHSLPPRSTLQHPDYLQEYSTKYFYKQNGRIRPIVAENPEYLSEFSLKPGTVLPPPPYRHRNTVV
Procedure: as §2

[6] = target: BTK (Homo sapiens, UniProt Q06187); experiment: Omnia assay for potency against BTK; assay type: biochemical; conditions: read-out: BTK Inhibition
Chain of BTK (Q06187 whole entry): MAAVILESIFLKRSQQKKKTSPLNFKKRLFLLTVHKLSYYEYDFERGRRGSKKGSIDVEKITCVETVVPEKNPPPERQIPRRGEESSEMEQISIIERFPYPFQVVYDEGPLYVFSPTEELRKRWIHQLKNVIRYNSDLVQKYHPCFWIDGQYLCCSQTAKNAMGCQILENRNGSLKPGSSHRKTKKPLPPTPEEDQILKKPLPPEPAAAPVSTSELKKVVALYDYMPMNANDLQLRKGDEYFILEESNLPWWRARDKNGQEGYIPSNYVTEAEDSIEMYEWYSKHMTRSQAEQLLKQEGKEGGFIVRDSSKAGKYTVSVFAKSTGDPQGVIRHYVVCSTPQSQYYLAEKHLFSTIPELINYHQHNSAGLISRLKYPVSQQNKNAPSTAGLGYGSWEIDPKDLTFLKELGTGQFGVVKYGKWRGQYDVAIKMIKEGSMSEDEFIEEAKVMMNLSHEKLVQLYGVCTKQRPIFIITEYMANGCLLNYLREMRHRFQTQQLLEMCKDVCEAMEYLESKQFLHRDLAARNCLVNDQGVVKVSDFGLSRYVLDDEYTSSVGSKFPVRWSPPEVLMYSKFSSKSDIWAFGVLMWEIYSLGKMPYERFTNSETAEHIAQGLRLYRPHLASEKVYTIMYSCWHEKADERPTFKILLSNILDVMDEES
Summary of the method: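 BTK (5 nM) was pre-incubated 30 min at 27° C with serially diluted compounds in Tris pH 7.5/MgCl2 buffer, then started with […] and Y5-Sox peptide 10 mM (ATP KMapp ~36 mM). Fluorescence (ex360/em485) was read continuously over 60 min. IC50 came from initial velocities using a variable-slope fit.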

[7] = target: T3, JAK3 (Homo sapiens, UniProt P52333); experiment: Omnia assay for potency against JAK3; assay type: biochemical; conditions: read-out: JAK3 Inhibition
T3 sequence (P52333 1-1124): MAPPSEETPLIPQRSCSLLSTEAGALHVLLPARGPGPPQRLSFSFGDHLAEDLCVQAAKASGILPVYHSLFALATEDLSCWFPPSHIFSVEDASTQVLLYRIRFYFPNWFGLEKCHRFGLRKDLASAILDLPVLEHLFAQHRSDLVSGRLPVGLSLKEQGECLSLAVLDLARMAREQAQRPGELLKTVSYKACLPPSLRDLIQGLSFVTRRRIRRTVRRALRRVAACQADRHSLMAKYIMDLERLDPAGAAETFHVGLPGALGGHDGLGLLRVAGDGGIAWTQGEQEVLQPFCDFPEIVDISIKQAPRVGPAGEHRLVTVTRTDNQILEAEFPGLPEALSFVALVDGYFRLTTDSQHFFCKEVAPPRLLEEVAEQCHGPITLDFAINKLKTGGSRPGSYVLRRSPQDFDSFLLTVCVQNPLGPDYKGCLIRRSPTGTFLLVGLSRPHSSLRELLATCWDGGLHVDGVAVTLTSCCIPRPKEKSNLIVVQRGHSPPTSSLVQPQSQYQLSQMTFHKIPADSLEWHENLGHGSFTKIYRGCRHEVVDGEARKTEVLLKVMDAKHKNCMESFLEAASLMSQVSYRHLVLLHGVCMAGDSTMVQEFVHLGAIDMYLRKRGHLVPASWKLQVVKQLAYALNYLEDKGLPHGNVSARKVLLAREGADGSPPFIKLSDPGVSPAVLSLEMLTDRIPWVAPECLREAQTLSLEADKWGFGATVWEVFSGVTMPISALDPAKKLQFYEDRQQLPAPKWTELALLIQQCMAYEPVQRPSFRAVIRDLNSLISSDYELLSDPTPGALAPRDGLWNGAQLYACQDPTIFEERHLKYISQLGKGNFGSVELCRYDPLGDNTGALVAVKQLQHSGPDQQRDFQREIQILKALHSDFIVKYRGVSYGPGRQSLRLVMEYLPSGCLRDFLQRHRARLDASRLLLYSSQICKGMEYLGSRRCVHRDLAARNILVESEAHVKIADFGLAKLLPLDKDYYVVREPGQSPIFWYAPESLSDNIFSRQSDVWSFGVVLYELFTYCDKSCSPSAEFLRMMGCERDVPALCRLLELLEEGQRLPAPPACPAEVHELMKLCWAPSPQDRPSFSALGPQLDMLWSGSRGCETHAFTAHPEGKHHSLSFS
Summary of the method: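 Continuous-read Omnia kinase assay with 5 nM JAK3, 5 μM ATP (near apparent Km) and 5 μM Y12-Sox peptide in Tris pH 7.5/MgCl2 buffer; enzyme pre-incubated with compound 30 min at 27 °C. Fluorescence (ex360/em485) read over 60 min; initial velocities fitted against inhibitor concentration to give IC50.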

[8] = system: BTK signaling in Ramos cells; experiment: BTK Ramos cellular assay (PLCγ2 phosphorylation); assay type: cell-based; conditions: Homo sapiens; Ramos cells, PLCγ2 phosphorylation; read-out: BTK Inhibition
Procedure: Compounds 1-13 and (I-52) were assayed in Ramos human Burkitt lymphoma cells. Ramos cells were grown in suspension in T225 flasks, spun down, resuspended in 50 mls serum-free media and incubated for 1 hour. Compound was added to Ramos cells in serum free media to a final concentration of 1, 0.1, 0.01, or 0.001 μM. Ramos cells were incubated with compound for 1 hour, washed again and resuspended in 100 ul serum-free media. Cells were then stimulated with 1 μg of goat F(ab′)2 Anti-Human IgM and incubated on ice for 10 minutes to activate B cell receptor signaling pathways. After 10 minutes, the cells were washed once with PBS and then lysed on ice with Invitrogen Cell Extraction buffer. 16 μg total protein from lysates was loaded on gels and blots were probed for phosphorylation of the BTK substrate PLCγ2. […] Additional dose response inhibition of BTK signaling with I-13 is depicted in FIG. 9.

[9] = target: T4, ITK (Homo sapiens, UniProt Q08881); experiment: Omnia assay for potency against ITK; assay type: biochemical; conditions: read-out: ITK inhibition
T4 sequence (Q08881 1-620): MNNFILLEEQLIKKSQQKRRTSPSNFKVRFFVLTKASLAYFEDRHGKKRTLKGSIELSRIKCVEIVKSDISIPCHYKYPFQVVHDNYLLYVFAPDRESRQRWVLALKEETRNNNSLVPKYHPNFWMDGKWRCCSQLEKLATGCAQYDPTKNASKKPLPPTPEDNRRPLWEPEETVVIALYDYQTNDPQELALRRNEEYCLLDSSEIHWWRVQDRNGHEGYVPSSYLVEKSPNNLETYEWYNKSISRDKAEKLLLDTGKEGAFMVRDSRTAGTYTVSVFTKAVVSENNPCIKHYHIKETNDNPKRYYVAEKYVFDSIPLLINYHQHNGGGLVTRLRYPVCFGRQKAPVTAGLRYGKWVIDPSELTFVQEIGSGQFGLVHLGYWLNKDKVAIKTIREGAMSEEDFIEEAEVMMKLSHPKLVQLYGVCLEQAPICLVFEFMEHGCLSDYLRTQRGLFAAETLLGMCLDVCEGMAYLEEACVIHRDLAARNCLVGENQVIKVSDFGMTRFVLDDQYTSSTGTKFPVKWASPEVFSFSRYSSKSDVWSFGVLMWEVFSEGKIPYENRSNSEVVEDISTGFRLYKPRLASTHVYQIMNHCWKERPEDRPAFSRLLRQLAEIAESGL
Excerpt: The protocol below describes continuous-read kinase assays to measure inherent potency of compounds against active forms of EGFR (WT) and EGFR (T790M/L858R) enzymes. The mechanics of the assay platform are best described by the vendor (Invitrogen, Carlsbad, Calif.) on their website at the following URL: http://www.invitrogen.com/content.cfm?pageid=11338 or http://www.invitrogen.com/site/us/en/home/Products-and-Services/Applications/Drug-Discovery/Target-and-Lead-Identification-and-Validation/KinaseBiology/KB-Misc/Biochemical-Assays/Omnia-Kinase-Assays.html.
Briefly, 10× stocks of EGFR-WT (PV3872) from Invitrogen and EGFR-T790M/L858R (40350) from BPS Bioscience, San Diego, Calif., 1.13×ATP (AS001A) and appropriate Tyr-Sox conjugated peptide substrates (KCZI001) were prepared in 1× kinase reaction buffer consisting of 20 mM Tris, pH 7.5, 5 mM MgCl2, 1 mM EGTA, 5 mM β-glycerophosphate, 5% glycerol (10× stock, KB002A) and 0.2 mM DTT (DS001A). 5 μL of each enzyme were pre-incubated in a Corning (#3574) 384-well, white, non-binding surface microtiter plate (Corning, NY) for 30 min. at 27° C. with a 0.5 μL volume of 50% DMSO and serially diluted compounds prepared in 50% DMSO. Kinase reactions were started with the addition of 45 μL of the ATP/Tyr-Sox peptide substrate mix and monitored every 30-90 seconds for 60 minutes at λex360/λem485 in a Synergy^4 plate reader from BioTek (Winooski, Vt.). At the conclusion of each assay, progress curves from each well were examined for linear reaction kinetics and fit statistics (R^2, 95% confidence interval, absolute sum of squares). Initial velocity (0 minutes to ˜30 minutes) from each reaction was determined from the slope of a plot of relative fluorescence units vs time (minutes) and then plotted against inhibitor concentration to estimate IC50 from log [Inhibitor] vs Response, Variable Slope model in GraphPad Prism from GraphPad Software (San Diego, Calif.).
This example describes continuous-read kinase assays to measure inherent potency of compound against active forms of ITK enzymes as described in Example 10 above except that the modified ITK-optimized reagent conditions are: • [ITK]=10 nM, [ATP]=25 μM, [Y6-Sox]=10 μM (ATP KMapp=33 μM).

T1 sequence (P00533 25-1210): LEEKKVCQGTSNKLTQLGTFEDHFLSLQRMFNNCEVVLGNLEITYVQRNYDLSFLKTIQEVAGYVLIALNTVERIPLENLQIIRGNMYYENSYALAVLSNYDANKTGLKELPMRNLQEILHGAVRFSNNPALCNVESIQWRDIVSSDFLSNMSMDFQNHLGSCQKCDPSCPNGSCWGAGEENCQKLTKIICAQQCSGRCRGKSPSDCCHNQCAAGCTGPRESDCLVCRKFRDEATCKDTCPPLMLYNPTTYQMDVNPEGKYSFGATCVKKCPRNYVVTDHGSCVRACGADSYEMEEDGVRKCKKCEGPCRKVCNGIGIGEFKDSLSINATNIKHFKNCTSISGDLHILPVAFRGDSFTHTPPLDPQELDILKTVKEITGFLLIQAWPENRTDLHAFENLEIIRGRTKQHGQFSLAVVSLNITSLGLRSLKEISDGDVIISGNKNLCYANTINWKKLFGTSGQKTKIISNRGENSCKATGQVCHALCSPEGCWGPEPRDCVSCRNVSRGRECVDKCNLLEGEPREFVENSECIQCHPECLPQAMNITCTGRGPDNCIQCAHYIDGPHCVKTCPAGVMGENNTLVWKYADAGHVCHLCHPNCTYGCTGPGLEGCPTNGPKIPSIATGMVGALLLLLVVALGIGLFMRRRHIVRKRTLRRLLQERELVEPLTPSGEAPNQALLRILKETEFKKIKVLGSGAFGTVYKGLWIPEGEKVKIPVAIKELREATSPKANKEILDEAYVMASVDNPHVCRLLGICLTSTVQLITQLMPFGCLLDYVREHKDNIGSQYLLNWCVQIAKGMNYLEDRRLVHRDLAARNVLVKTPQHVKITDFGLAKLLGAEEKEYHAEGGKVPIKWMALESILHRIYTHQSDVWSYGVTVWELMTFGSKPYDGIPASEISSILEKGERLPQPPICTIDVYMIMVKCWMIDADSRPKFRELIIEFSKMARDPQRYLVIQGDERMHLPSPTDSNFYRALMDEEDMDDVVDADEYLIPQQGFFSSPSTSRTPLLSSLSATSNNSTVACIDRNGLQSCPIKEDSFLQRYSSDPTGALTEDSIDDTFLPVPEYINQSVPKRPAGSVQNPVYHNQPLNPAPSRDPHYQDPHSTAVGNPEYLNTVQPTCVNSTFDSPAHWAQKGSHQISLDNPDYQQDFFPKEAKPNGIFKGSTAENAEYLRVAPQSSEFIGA

IC50 [1] [nM]	IC50 [2] [nM]	inhibition at 0.01 µM [3] [%]	inhibition at 1 µM [4] [%]	inhibition at 1 µM [5] [%]	IC50 [6] [nM]	IC50 [7] [nM]	inhibition at 1 µM [3] [%]	inhibition at 0.01 µM ([4]; @ 10 nM) [%]	inhibition at 0.1 µM ([4]; @ 100 nM) [%]	inhibition at 0.01 µM ([5]; @ 10 nM) [%]	inhibition at 0.1 µM ([5]; @ 100 nM) [%]	inhibition at 0.1 µM ([3]; @ 100 nM) [%]	IC50 [8] [nM]	IC50 [9] [µM]	SMILES
≤ 10	10 to 100	100	86	78	≤ 10	≤ 10	–	–	–	–	–	–	–	–	C=CC(=O)Nc1cccc(Nc2cc(Nc3cccc(C)c3)ncn2)c1 [I-4, N-{3-[6-(3-methylphenylamino)-pyrimidin-4-ylamino]phenyl}-2-propenamide]
≤ 10	10 to 100	–	–	–	10 to 100	10 to 100	98	24	87	26	93	–	–	–	C=CC(=O)Nc1cccc(Nc2cc(Nc3ccc(OCc4ccccn4)c(Cl)c3)ncn2)c1 [I-16, N-(3-(6-(3-chloro-4-(pyridin-2-ylmethoxy)phenylamino)pyrimidin-4-ylamino)phenyl)-2-propenamide]
≤ 10	1000 to 10000	83	–	57	≥ 10000	1000 to 10000	–	–	–	–	–	–	–	–	C/C=C/C(=O)Nc1cccc(Nc2cc(Nc3cccc(Br)c3)ncn2)c1 [I-8, (E)-N-(3-[6-(3-bromophenylamino)-pyrimidin-4-ylamino]-phenyl)-2-butenamide]

Second part, the compound before the results:

SMILES	IC50 [1] [nM]	IC50 [2] [nM]	inhibition at 0.01 µM [3] [%]	inhibition at 1 µM [4] [%]	inhibition at 1 µM [5] [%]	IC50 [6] [nM]	IC50 [7] [nM]	inhibition at 1 µM [3] [%]	inhibition at 0.01 µM ([4]; @ 10 nM) [%]	inhibition at 0.1 µM ([4]; @ 100 nM) [%]	inhibition at 0.01 µM ([5]; @ 10 nM) [%]	inhibition at 0.1 µM ([5]; @ 100 nM) [%]	inhibition at 0.1 µM ([3]; @ 100 nM) [%]	IC50 [8] [nM]	IC50 [9] [µM]
CN(C)C/C=C/C(=O)Nc1cccc(Nc2cc(Nc3ccc(OCc4ccccn4)c(Cl)c3)ncn2)c1 [I-19, (E)-N-(3-(6-(3-chloro-4-(pyridin-2-ylmethoxy)phenylamino)-pyrmidin-4-ylamino)phenyl)-4-(dimethylamino)but-2-enamide]	≤ 10	≤ 10	–	98	97	10 to 100	100 to 1000	96	–	–	–	–	–	–	–
C=CC(=O)Nc1cccc(Nc2cc(Oc3cccc(C(F)(F)F)c3)ncn2)c1 [I-9]	≤ 10	100 to 1000	–	–	75	100 to 1000	100 to 1000	100	–	–	–	–	–	–	–
C=CS(=O)(=O)Nc1cccc(Nc2cc(Nc3ccc(OCc4cccc(F)c4)c(Cl)c3)ncn2)c1 [I-7, N-{3-[6-(3-chloro-4-(3-fluorophenyl)methoxy-phenylamino)-pyrimidin-4-ylamino]phenyl}-ethenesulfonamide]	≤ 10	10 to 100	53	89	100	10 to 100	100 to 1000	–	–	–	–	–	100	–	–
CN(C)C/C=C/C(=O)Nc1cccc(Nc2cc(Nc3ccc(F)c(Cl)c3)ncn2)c1 [I-18, (E)-N-{3-[6-(3-chloro-4-fluorophenylamino)-pyrimidin-4-ylamino]phenyl}-4-dimethylamino-2-butenamide]	≤ 10	≤ 10	–	91	94	10 to 100	10 to 100	–	–	–	–	–	–	–	–
C=CC(=O)Nc1cc(Nc2cc(Oc3ccc(Oc4ccccc4)cc3)ncn2)cc(C(=O)N2CCOCC2)c1 [I-100, N-(3-(morpholine-4-carbonyl)-5-(6-(4-phenoxy)pyrimidin-4-ylamino)phenyl)acrylamide]	≤ 10	–	–	–	–	≤ 10	–	–	–	–	–	–	–	10 to 100	≥ 10
